The values that follow come from patent publication US10308682B2, “Inhibition of tumor growth with aggregates of small molecules” (BRANDEIS UNIVERSITY, priority 2013, dated 2019).

Data set [1] relates to PC12 cells. The experiment in a line: Intracellular concentration of 1 in PC12 cells by LC-MS. The class given is cell-based. As to conditions: 12 h at 37° C. The procedure:
FIG. 10 depicts the long term cytotoxicity of 1 on PC12 cells. Related to FIG. 2. (a) MTT viability test of cell incubated with gradient concentration of 1 for up to 7 days without changing medium. Data are presented as mean±SD of three independent experiments. (b) Intracellular concentration of 1 in PC12 cells treated with 1 for 12 h at 37° C. measured by LC-MS (left bar=400 μM; right bar=300 μM). (c) Cells were subcultured and re-seeded with new medium containing the same concentration of 1 (0 for control group and 400 μM for test group) every 4 days. Data are presented as mean±SD of three independent experiments.
FIG. 21 depicts the intracellular concentration of 1 in PC12 and T98G cells after incubation with 400 μM of 1 for 12 h. Cells in exponential growth phase were seeded in a 10 cm petri dish at 10,000 cell/mL. The cells were allowed to attach for 24 h at 37° C., 5% CO2. The culture medium was removed, and new culture medium containing 1 at 0 or 400 μM was added. After 12 h of incubation, cells were washed with PBS buffer 3 times and collected by cell scraper with 1 mL of PBS buffer. The cell suspension was centrifuged at 600 g for 5 min to obtain a cell pellet. 10 μL of the cell pellet were lysed in 200 μL of water and 200 μL of MeOH. […] The concentration of 1 in the lysate was measured by LC-MS.

The next data set concerns T98G cells. Nature of the data set: Tubulin staining (tubulin tracker), T98G cells. The class given is cell-based. Particulars: 400 μM, 24 h.
The test system of data set [2] is HeLa cells. Nature of the data set: Cell migration assay of HeLa cells. In kind it is cell-based. As to conditions: 18 h. The procedure:
(§1) FIG. 3 depicts the response of cancer cells toward molecular aggregates of 1. (a) Intracellular concentration of 1 in HeLa cells treated with 1 for 12 h at different temperatures measure by LC-MS (left bar=37° C.; right bar=4° C.). (b) Confocal images of FITC annexin V and PI stained HeLa cells without incubation with 1 (live cells), HeLa cells treated with 400 μM of 1 for 36 h, and necrotic HeLa cells (induced by DMSO). Scale bar=20 μm. (c) Fluorescence emission of 7-AAD and 1 in cell lysate (15,000 cell/mL) at λex=488 nm. (d) Cell cycle analysis, by flow cytometry, of HeLa cells treated with 0, 300 or 400 μM of 1 for 24 h. Depletion of G2/M phase occurs in cells treated with 400 μM of 1. (e) Cell migration assay of HeLa cells treated with 0, 300, 400 or 500 μM of 1. The gaps were created on the HeLa cells of 100% confluence in 24 well plates, and measured after incubation for 18 h.
(§2) Because apoptosis associates with cell cycle, we examined the effect of the aggregates of 1 on the cell cycle. […] The cell-cycle distribution of the HeLa cells incubated with 400 μM of 1 indicates significant decrease of the peaks of S phase and G2/M phase. […] The slight right shift of the whole spectra results from the overlapping of emission of 7-AAD and 1 (FIG. 3c). But such shift barely hampers the distribution of cell-cycle of the spectra. The aggregates of 1 also delay the migration of the HeLa cells.

Data set [3] deals with PC12 cells. Nature of the data set: Tubulin staining (tubulin tracker), PC12 cells. In kind it is cell-based. Particulars: 400 μM, 24 h.
Data set [4] deals with HeLa cells. Nature of the data set: Tubulin staining (tubulin tracker), HeLa cells. In kind it is cell-based. As to conditions: 24 h. The procedure: Cells in exponential growth phase were seeded in glass bottomed culture chamber at 10,000 cell/mL. The cells were allowed for attachment for 24 h at 37° C., 5% CO2. The culture medium was removed, and new culture medium containing 1 at 0 or 400 μM was added. After 24 h of incubation, cells were washed with PBS buffer for 3 times and stained by Tubulin Tracker™ Green at 100 nM and DAPI 300 nM in PBS for 30 min at 37° C. in dark. The sample was rinsed three times in PBS, and the cells were kept in PBS for imaging.
To confirm that the aggregates of 1 clusters multiple tubulin heterodimers and inhibit the formation of microtubules inside live cells, we used a tubulin tracker that selectively binds to tubulin polymers (microtubules) over tubulin monomers to stain the HeLa cells treated with 1 at different concentrations for 24 h. […] As the tubulin tracker only stains microtubule (i.e., polymerized tubulin heterodimers), the fluorescence from the cluster indicates the tubulin heterodimers in the clusters are short microtubules. […] The loss of microtubules induced by molecular aggregates of 1 explains the origins of the delay of cell migration and the arrest of cell-cycle in HeLa cells incubated with 400 or 500 μM of 1.

The subject of data set [5] is HeLa cells. The experiment in a line: Flow cytometry cell-cycle analysis of HeLa cells. In kind it is cell-based. Particulars: 400 μM, 24 h. The procedure:
as §1, §2

In a further data set the test system is tau. Nature of the data set: Hydrogel based protein pull-down assay, tau. In kind it is binding. As to conditions: protein mass-spectrometry. The procedure: One reason is that PC12 cells have slower metabolism and growth (e.g., doubling every 72 h) than that of cancer cells. […] Another reason is that, PC12 cells, as a neuronal cell, have abundant amount of microtubule-stabilizing proteins (e.g., tau and MAP2) to promote tubulin polymerization and stabilize microtubules. […] Therefore, the existence of microtubule-stabilizing proteins in neurons can counter the effect of the molecular aggregates of 1, which is consistent with that PC12 cells, incubated with 1 at 400 μM (FIG. 5p), still display intact microtubule network. These two effects together, protect the PC12 cells from cytotoxicity induced by molecular aggregates of 1 (FIG. 7).
4×10^7 of HeLa cells were scrapped from petri dish and washed with PBS buffer for 3 times then centrifuged at 300 g for 5 minutes. The collected cell pellet was mixed with phosphate buffer (100 mM) then snap freeze and thaw for 3 cycles to lyse the cells. The cell lysate was clarified by centrifugation at 12,000 g for 20 min at 4° C. to remove the whole cells, nuclei and large mitochondria. 50 μL of the supernatant lysate was gently mixed with 30 μL hydrogel of 1 (10 mM in PBS buffer, pH 7.6) on rotator at RT for 30 min. The hydrogel was collected by centrifugation (12,000 g, 5 min, 4° C.) and the supernatant was collected and placed on ice before analysis. […]

Each structure is given as a SMILES string.

On to `O=C(Cc1ccc2ccccc2c1)N[C@@H](Cc1ccccc1)C(=O)N[C@@H](Cc1ccccc1)C(=O)O` [Compound 1], for which the “accumulation of 1 in PC12 cells versus HeLa cells” value in the data set on PC12 cells [1] was “much less amount of 1 than HeLa cells do”. The microtubule morphology entry is “disrupted microtubule network” in the data set on T98G cells; “intact microtubule networks” in the data set with PC12 cells [3]; “essentially the same morphology and distribution as those in the control cells” in the data set on HeLa cells [4] (200 μM); “a small amount of the microtubules appear to be shorter than those in the control cells” in the data set on HeLa cells [4] (300 μM); “large clusters surrounded by scattered microtubule fibrils” with HeLa cells [4] (400 μM); “(almost) normal microtubule networks, with only few clusters” in the data set with HeLa cells [4] (400 μM, medium filtered by 0.22 μm PVDF membrane). Also, the results for the “gap coverage by migrating cells” value in the data set with HeLa cells [2] (300 μM) and with HeLa cells [2] (400 or 500 μM) were 47 % of the gaps and 27 % of the gaps, respectively. Also, the cell-cycle distribution entry in the data set with HeLa cells [5] is “arrest the HeLa cells at the G1/G0 phase”. Also, in the data set on tau, the “interaction of aggregates of 1 with tau” value was “little or no interaction”.
